In experiment [1] the test system is LPS-induced TNF-α release from human peripheral blood mononuclear cells. Description: Whole cell LPS-stimulated TNF-α release assay. In kind it is cell-based. The conditions noted are these: Table III; inhibition of LPS-induced TNF-α release from human PBMC by 50%. Here is the method: The procedure as described in Welker et al., Int. Arch. Allergy and Immunol. 109:110-115 (1996) can be followed. Briefly, a candidate compound and/or vehicle can be preincubated with human peripheral blood mononuclear leukocytes (PBML, 5×10^5/ml) cells in AIM-V medium pH 7.4 for 2 hours. Lipopolysaccharide (LPS, 25 ng/ml) can be added to stimulate the cells, which can be incubated overnight at 37° C. TNF-α cytokine levels in the conditioned medium can then be quantitated using a sandwich ELISA kit.

In experiment [2] the test system is oxazolone-induced mouse ear swelling. Description: Model for inhibition of topical inflammation (oxazolone-induced mouse ear swelling). In kind it is in vivo, BALB/c male mice. The conditions noted are these: topical to right ear, ear thickness 24 hours after challenge. As to the method: Left ears were untreated. The thickness of both ears of each animal was measured with a Dyer model micrometer gauge 24 hours after oxazolone challenge, and the net increase in thickness of right ears versus left ears was calculated for each animal. Percent inhibition was calculated according to the formula: [(Iv−It)/Iv]×100, where Iv and It respectively refer to the average net increase in right ear thickness (mm) for vehicle and candidate compound treated mice.

pIC50: −log10 of the molar value. Counter-ions that a name gives are not always drawn.

For `O=C(O)C[C@H](O)C[C@H](O)/C=C/c1cnn(-c2ccnc(Nc3ccccc3)n2)c1-c1cccc(C(F)(F)F)c1` [Example 11g, (3R,5S,E)-3,5-dihydroxy-7-(1-(2-(phenylamino)pyrimidin-4-yl)-5-(3-(trifluoromethyl)phenyl)-1H-pyrazol-4-yl)hept-6-enoic acid calcium salt], the negative logarithm of the IC50 (pIC50) in experiment [1] was 4.28.
With `O=C([O-])C[C@H](O)C[C@H](O)/C=C/c1c(C2CC2)nc2ccccc2c1-c1ccc(F)cc1.O=C([O-])C[C@H](O)C[C@H](O)/C=C/c1c(C2CC2)nc2ccccc2c1-c1ccc(F)cc1.[Ca+2]` [Pitavastatin calcium], the “% Inh. of oxazolone-induced mouse ear swelling” value was determined as 9% in experiment [2] (dose 2 × 0.3 mg) and 60% in experiment [2] (dose 2 × 2 mg).
Consider `CC(C)n1c(/C=C/C(O)CC(O)CC(=O)O)c(-c2ccc(F)cc2)c2ccccc21` (stereo not drawn) [Fluvastatin sodium], for which, in experiment [2] (dose 2 × 0.3 mg), the “% Inh. of oxazolone-induced mouse ear swelling” value worked out at 28%.
On the same count and under the same terms, with `CC(C)c1nc(N(C)S(C)(=O)=O)nc(-c2ccc(F)cc2)c1/C=C/[C@@H](O)C[C@@H](O)CC(=O)O` [Rosuvastatin sodium] the figure was 20%.
On to `CC(C)c1c(C(=O)Nc2ccccc2)c(-c2ccccc2)c(-c2ccc(F)cc2)n1CC[C@@H](O)C[C@@H](O)CC(=O)O` [Atorvastatin sodium], for which the “% Inh. of oxazolone-induced mouse ear swelling” value is 9% in experiment [2] (dose 2 × 0.3 mg), 31% in experiment [2] (dose 2 × 1 mg) and 63% in experiment [2] (dose 2 × 2 mg).
In experiment [1], `O=C(O)C[C@H](O)C[C@H](O)/C=C/c1c(-c2ccccc2)nn(-c2ccnc(Nc3ccccc3)n2)c1-c1ccccc1` [Example 11a, (3R,5S,E)-7-(3,5-diphenyl-1-(2-(phenylamino)pyrimidin-4-yl)-1H-pyrazol-4-yl)-3,5-dihydroxyhept-6-enoic Acid Calcium Salt] showed a pIC50 of 4.51.

What is called pIC50 is the IC50 on a negative log10 scale, so that one unit is a factor of ten. Read a low pIC50 as a large IC50.

The values above are taken from US20070004758A1, “COMPOSITIONS AND TREATMENTS FOR INHIBITING KINASE AND/OR HMG-COA REDUCTASE” (priority 2004, published 2007).
